From publication PMC3709818, “A Novel Perspective and Approach to Intestinal Octreotide Absorption: Sinomenine-Mediated Reversible Tight Junction Opening and Its Molecular Mechanism” (International Journal of Molecular Sciences, 2013)
Counter-ions that a name gives are not always drawn.

Key:
claudin-1 = assay: Claudin-1 gene and protein expression (real-time PCR, western blot, immunofluorescence); assay type: cell-based, human; conditions: Caco-2 monolayers
Description: Caco-2 cells were grown on 6-well plates for 21 days and were then treated with SN for 2 h. Then, SN was removed by washing the cells with PBS twice. The cells were grown with new culture medium for another 2 h. To observe the effect of PKC on SN, cells in another group were treated with 0.5% SN and 10 μM Ro318220 together for 2 h. Control experiments were performed under the same conditions but without SN. The gene level expressions induced by SN treatment and after its removal were investigated. Total RNA was extracted following a standard guanidinium phenol-chloroform extraction protocol. The quantity of mRNA was determined by measuring the optical density at 260 nm (A260 nm = 1 for 40 μg/mL RNA), and the purity of mRNA was assessed by determining the ratio of the optical density obtained at 260 and 280 nm (pure RNA: A260 nm/A280 nm = 2.0) using a UV-1206 spectrophotometer (Shimadzu, Tokyo, Japan). […] Quantitative real-time PCR was performed using the Applied Biosystems 7500 faster Real-Time PCR System with the SYBR® Premix Ex Taq™ (Tli RNaseH Plus) Master Mix purchased from Takara Bio Inc. (Dalian, China) in triplicate for each sample and each gene. […] The results were expressed as the folds of the CT value for the target mRNA to that of the β-actin mRNA. […]

Caco-2 cell monolayers [1] = assay: FD-4 permeability (paracellular flux); assay type: cell-based, human; conditions: 0.1% FD-4 apical, 0.5% SN with or without 10 μM Ro318220, up to 120 min, PBS pH 7.4, fluorescence
Description: The integrity of the cell monolayer TJs was also examined by evaluating the FD-4 permeability in PBS adjusted to pH 7.4. A volume of 0.5 mL of 0.1% FD-4 containing 0.5% SN or 0.5% SN + 10 μM Ro318220 was added to the apical side of Caco-2 cell monolayers. The medium in basolateral side was buffered by the addition of 1.5 mL PBS to each well. Samples of 0.1 mL were withdrawn at time intervals of 30, 60, 90 and 120 min from the basolateral side after the incubation of the solutions on the apical side of cell monolayers. The samples withdrawn were replaced with an equal volume of buffered PBS. Control experiments were performed using a solution of 0.1% FD-4 alone. All of the experiments were performed in triplicate at 37 °C in an atmosphere of 90% relative humidity and 5% CO2. Basolateral solutions were then sampled and analyzed.
Quantitative analysis of FD-4: Samples were centrifuged at 10,000 rpm for 10 min, and the supernatant was analyzed using a fluorescence spectrophotometer at an excitation wavelength of 495 nm and an emission wavelength of 520 nm (Hitachi, FP6500, Tokyo, Japan).
Permeation clearance: ΔQ/(Δt × C0), where ΔQ/Δt is the permeation flux, i.e., the transport rate (μg/min), and C0 is the initial concentration on the donor side (μg/mL). Clearance was obtained per unit surface area and expressed as nL/min/cm2.

Caco-2 cell monolayers [2] = assay: LDH release cytotoxicity assay; assay type: cell-based, human
Description: To examine the toxic effects of SN to the Caco-2 cells, a lactate dehydrogenase (LDH) release assay was performed according to Madara and Stafford. The Caco-2 monolayer, which had been cultured in 24-well plates for 21 days, was washed with 500 μL of the PBS and was then incubated with 500 μL of the PBS containing the samples (0.5%, 1%, 2% w/v SN) to be tested at 37 °C for 120 min. Control experiments were performed under the same conditions but without SN. The amounts of LDH in the supernatant were determined using the enzymatic method and following the manufacturer’s instructions of LDH-Cytotoxic test kit from Nanjing KeyGEN Biotech. CO., Ltd. (Nanjing, China). Cytotoxicity was determined after 120 min of SN treatment, and the absorbance at 440 nm (reference wavelength was 650 nm) was measured to determine LDH activity. The cytotoxicity to the Caco-2 cell monolayers was expressed by the ratio of LDH released into the supernatant compared with the control group.
The LDH activity was calculated thus: (U/L) = (ODu − ODc)/(ODs − ODb) × Cs × N × 1000, where ODu, ODc, ODs, ODb represent the absorbance of the test tube, control tube, standard tube, and background tube, respectively, C represents the standard concentration (2 mmol/L) and N represents the dilution ratio of the sample.

Caco-2 cell monolayers [3] = assay: Transepithelial electrical resistance (TEER) measurement; assay type: cell-based, human
Description: The cell monolayer integrity was examined by measuring the TEER and evaluating the cell permeability to FD-4 in Caco-2 cell monolayers. The experiments were performed after Caco-2 cells formed polarized monolayers. Cells were seeded onto polycarbonate 12-well Transwell® filter inserts (Corning Costar Corp., Cambridge, MA, USA; pore size 0.4 μm, growth area 1.12 cm^2) at a density of 1 × 10^6 cells/mL, and the cells were grown for 21 days before the TEER study was conducted. After the application of 0.5% SN, TEER was measured at time intervals of 20 min for a period of 120 min. Then, the reversibility of SN on TEER was measured by removing SN from the apical compartment and replacing it with serum-free DMEM for a further 120 min at 20-min intervals. To observe the effect of PKC to SN, cells in another group were treated with 0.5% SN and 10 μM Ro318220 (PKC inhibitor) together for 120 min at 20-min intervals. Control experiments were performed under the same conditions but without SN. All of the experiments were performed in triplicate at 37 °C in an atmosphere of 90% relative humidity and 5% CO2. The TEER measurements across Caco-2 cell monolayers were performed using a Millicell ERS instrument (Millipore, Bedford, MA, USA). The TEER values of these cells after treatment were recorded. Resistance due to the cell monolayers was determined in the presence and the absence of SN after subtracting the contribution of the blank filter. The percent change in TEER was calculated as follows:
(1) TEER=(R1-R0)×A (Ω·cm^2)
where R1 and R0 represent the TEER readings from the wells with cells and the no-cell background wells, respectively, and A (cm^2) represents the surface area of the cell monolayer on the insert.
(2) TEER%=TEERtest/EERinitial×100

PKC-α = PKC-α translocation cytosol to membrane (western blot); assay type: cell-based, human; conditions: Caco-2 cells, 0.5% SN, 2 h
Description: Caco-2 cells were grown on 6-well plates and were treated with SN as described above. After treatment, cytosolic, membrane and total protein were extracted following the manufacturer’s instructions of the test kit from Nanjing KeyGEN Biotech. CO., LTD (China). The protocols for western blot analyses have been described previously. The protein concentration was calculated using the BCA Protein Assay Kit from Nanjing KeyGEN Biotech. CO., LTD (China). Equal amounts of protein samples (30 μg protein) were separated onto SDS-polyacrylamide gels (PKC and β-actin were 12% gels, claudin-1 was 15% gels), and the separated proteins were transferred to a PVDF membrane. After blocking in 5% skim milk in Tris-buffered saline containing 0.05% Tween-20 (TTBS), the PVDF membrane was incubated overnight in blocking buffer with diluted primary antibodies: anti-claudin-1 (Abcam, Cambridge, MA, USA, 1:1000 dilution), anti-PKC-α (Beyotime Institute of Biotechnology, China, 1:500 dilution), and anti-β-actin (Zhongshan Goldenbridge Biological Technology, Beijing, China, 1:500 dilution), at 4 °C. […] The product bands were photographed, and the density of each product band was quantified. The intensity of each signal was corrected using the values obtained from the immunodetection of β-actin, and the relative protein intensity was expressed as folds of the content in the normal group.

[4] = everted rat gut sac model; cited from earlier work
[5] = OCT transport across Caco-2 cell monolayers; assay type: in vitro ADME, human; conditions: Caco-2, 21 days, Transwell, 10 μM OCT with or without 0.5% SN, PBS pH 7.4, 120 min, 37 °C, LC-MS/MS, triplicate, mean ± s.d.
Description: Caco-2 cells were seeded onto polycarbonate 12-well Transwell® filter inserts as described above. The OCT transport experiment was performed in the apical-to-basolateral directions in PBS adjusted to pH 7.4 [7]. A volume of 0.5 mL of 0.5% SN containing 10 μM OCT was added to the apical side of Caco-2 cell monolayers. The medium in the basolateral side was buffered by the addition of 1.5 mL PBS of each well. Samples of 0.1 mL were withdrawn at time intervals of 30, 60, 90 and 120 min from the basolateral side after the incubation of the solutions on the apical side of cell monolayers. The samples withdrawn were replaced with an equal volume of buffered PBS. Control experiments were performed using a solution of OCT alone. […]
The results were corrected for dilution and plotted as the percentage cumulative OCT transported as a function of time. The apparent permeability coefficients (Papp) were calculated according to the following equation [33]: Papp = ΔQ/(Δt × A × C0) (cm/s), where ΔQ/Δt is the amount of OCT transported within a given time period or permeability rate (ng/min), A is the surface area of the cell monolayer on the insert (cm^2) and C0 is the initial drug concentration (ng/mL). Permeation enhancement ratios (R) were calculated from the Papp values using the following equation R = Papptest/Pappcontrol.

COC1=C[C@@H]2[C@@H]3Cc4ccc(OC)c(O)c4[C@]2(CCN3C)CC1=O [SN, Sinomenine hydrochloride]
claudin-1 expression after SN removal (claudin-1; 0.5% SN 2 h, then 2 h after removal): returned to its normal level | claudin-1 gene and protein expression vs control (claudin-1; 0.5% SN with or without 10 μM Ro318220, 2 h): distinct loss of claudin-1 gene | FD-4 flux (A-B) (Caco-2 cell monolayers [1]): time-dependent increase in FD-4 flux | LDH release vs control (Caco-2 cell monolayers [2]; 0.5% w/v SN, 120 min, PBS 37 °C, Caco-2 monolayers cultured 21 days): did not differ from the control | cytotoxicity by LDH test (Caco-2 cell monolayers [2]; 1% w/v SN, 120 min, Caco-2 monolayers): cytotoxic effects | LDH release vs control (Caco-2 cell monolayers [2]; 2% w/v SN, 60 min, Caco-2 monolayers): markedly increased LDH activity | cytotoxicity by LDH test (Caco-2 cell monolayers [2]; 2% w/v SN, 120 min, Caco-2 monolayers): cytotoxic effects | TEER recovery after SN removal vs control (Caco-2 cell monolayers [3]; 0.5% SN 120 min, then removal, at 240 min): no difference compared with the control | effect on TEER at 120 min vs control (Caco-2 cell monolayers [3]; 0.5% SN with or without 10 μM Ro318220, 120 min, Caco-2 monolayers, triplicate): strong reduction of TEER | TEER relative to the initial value (Caco-2 cell monolayers [3]; 0.5% SN, 120 min incubation, pH 7.4, Caco-2 monolayers): 43% | time for transient and reversible opening of TJ (Caco-2 cell monolayers [3]; 0.5% SN, Caco-2 monolayers, recovery after removal): 2 h | PKC-α distribution between cytosolic and membrane fraction (PKC-α): most PKC-α was present in the membrane fraction

C[C@@]12C[C@@]3(O)O[C@@H](O1)[C@]1(COC(=O)c4ccccc4)[C@H]3C[C@@]12O[C@@H]1O[C@H](CO)[C@@H](O)[C@H](O)[C@H]1O [paeoniflorin]
increase of paeoniflorin absorption when co-incubated with SN [4]: approximately 2.5 fold

C[C@@H](O)[C@@H]1NC(=O)[C@H](CCCCN)NC(=O)[C@@H](Cc2c[nH]c3ccccc23)NC(=O)[C@H](Cc2ccccc2)NC(=O)[C@@H](NC(=O)[C@H](N)Cc2ccccc2)CSSC[C@@H](C(=O)N[C@H](CO)[C@@H](C)O)NC1=O [OCT, Octreotide]
Papp A→B [5]: 2.67 ± 0.015 ×10⁻⁶ cm/s
